Results taken from publication PMC7176092, “Development of the first in vivo GPR17 ligand through an iterative drug discovery pipeline: A novel disease-modifying strategy for multiple sclerosis” (PLoS ONE, 2020).
Where two headings read alike, the source gives them in different places.

How the values were obtained:
CCR7 = molecular target: T1, CCR7 (Homo sapiens, UniProt P32248); experiment: Cellular functional assay CCR7
T1 sequence (P32248 25-378): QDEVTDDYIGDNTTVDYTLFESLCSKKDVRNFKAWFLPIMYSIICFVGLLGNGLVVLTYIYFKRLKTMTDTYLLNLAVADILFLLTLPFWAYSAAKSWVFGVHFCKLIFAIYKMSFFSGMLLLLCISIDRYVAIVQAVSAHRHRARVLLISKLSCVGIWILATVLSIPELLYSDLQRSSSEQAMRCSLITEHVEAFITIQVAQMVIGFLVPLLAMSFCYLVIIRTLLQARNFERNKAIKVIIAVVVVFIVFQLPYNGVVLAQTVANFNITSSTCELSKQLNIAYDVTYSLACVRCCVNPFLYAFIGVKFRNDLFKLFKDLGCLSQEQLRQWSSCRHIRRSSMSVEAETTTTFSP

ADR2B = molecular target: T2, ADR2B (Homo sapiens, UniProt P18089); experiment: Binding assay ADR2B; conditions: 100 nM
T2 construct: Eurofins Cerep (external service)
T2 sequence (P18089 1-450): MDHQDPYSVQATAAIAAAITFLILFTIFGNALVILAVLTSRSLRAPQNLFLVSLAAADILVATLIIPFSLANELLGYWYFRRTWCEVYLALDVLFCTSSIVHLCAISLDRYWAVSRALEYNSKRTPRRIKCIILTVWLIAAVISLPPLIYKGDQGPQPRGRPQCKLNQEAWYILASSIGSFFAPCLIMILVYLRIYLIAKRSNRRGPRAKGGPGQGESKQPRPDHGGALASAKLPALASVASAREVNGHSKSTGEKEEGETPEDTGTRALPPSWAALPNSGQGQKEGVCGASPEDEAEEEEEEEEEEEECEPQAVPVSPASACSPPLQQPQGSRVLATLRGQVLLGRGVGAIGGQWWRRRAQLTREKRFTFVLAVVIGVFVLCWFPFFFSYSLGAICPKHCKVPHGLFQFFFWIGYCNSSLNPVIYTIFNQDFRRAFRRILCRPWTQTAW

CysLT2 = molecular target: T3, CysLT2 (Homo sapiens, UniProt Q9NS75); experiment: Binding assay CysLT2; conditions: 100 nM
T3 construct: Eurofins Cerep (external service)
T3 sequence (Q9NS75 1-346): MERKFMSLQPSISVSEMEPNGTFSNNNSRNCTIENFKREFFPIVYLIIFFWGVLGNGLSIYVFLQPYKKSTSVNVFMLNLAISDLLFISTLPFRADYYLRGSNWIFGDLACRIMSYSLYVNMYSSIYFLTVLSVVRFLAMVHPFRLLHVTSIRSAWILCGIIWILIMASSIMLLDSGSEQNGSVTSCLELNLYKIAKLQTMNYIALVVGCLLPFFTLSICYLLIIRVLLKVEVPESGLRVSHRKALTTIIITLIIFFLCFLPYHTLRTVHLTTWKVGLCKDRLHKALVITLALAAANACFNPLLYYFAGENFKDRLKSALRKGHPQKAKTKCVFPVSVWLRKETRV

CXCR1 = molecular target: T4, CXCR1 (Homo sapiens, UniProt P25024); experiment: Cellular functional assay CXCR1
T4 sequence (P25024 1-350): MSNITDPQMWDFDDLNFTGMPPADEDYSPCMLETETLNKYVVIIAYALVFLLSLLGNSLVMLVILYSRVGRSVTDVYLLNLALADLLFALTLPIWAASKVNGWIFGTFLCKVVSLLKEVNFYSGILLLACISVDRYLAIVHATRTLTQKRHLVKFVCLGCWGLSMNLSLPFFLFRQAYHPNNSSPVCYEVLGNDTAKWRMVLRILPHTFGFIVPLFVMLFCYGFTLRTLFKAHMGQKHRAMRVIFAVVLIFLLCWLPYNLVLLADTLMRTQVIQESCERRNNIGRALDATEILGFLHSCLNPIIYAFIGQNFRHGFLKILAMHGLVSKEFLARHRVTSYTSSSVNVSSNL

M3 = molecular target: T5, M3 (Homo sapiens, UniProt P20309); experiment: Binding assay M3; conditions: 100 nM
T5 construct: Eurofins Cerep (external service)

M4 = molecular target: T6, M4 (Homo sapiens, UniProt P08173); experiment: Binding assay M4; conditions: 100 nM
T6 construct: Eurofins Cerep (external service)
T6 sequence (P08173 1-479): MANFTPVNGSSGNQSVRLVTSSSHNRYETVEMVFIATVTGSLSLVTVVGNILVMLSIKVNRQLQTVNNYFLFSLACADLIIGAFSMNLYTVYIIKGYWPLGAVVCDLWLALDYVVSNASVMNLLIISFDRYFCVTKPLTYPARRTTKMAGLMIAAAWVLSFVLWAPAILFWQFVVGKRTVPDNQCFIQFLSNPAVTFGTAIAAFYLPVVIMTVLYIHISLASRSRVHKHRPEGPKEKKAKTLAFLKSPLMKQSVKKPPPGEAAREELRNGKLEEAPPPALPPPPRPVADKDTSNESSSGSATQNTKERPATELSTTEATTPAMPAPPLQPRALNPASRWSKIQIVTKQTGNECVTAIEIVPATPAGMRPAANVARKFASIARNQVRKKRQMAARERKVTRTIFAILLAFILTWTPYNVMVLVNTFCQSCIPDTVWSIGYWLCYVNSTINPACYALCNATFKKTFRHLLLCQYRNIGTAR

CCR9 = molecular target: T7, CCR9 (Homo sapiens, UniProt P51686); experiment: Cellular functional assay CCR9
T7 sequence (P51686 1-369): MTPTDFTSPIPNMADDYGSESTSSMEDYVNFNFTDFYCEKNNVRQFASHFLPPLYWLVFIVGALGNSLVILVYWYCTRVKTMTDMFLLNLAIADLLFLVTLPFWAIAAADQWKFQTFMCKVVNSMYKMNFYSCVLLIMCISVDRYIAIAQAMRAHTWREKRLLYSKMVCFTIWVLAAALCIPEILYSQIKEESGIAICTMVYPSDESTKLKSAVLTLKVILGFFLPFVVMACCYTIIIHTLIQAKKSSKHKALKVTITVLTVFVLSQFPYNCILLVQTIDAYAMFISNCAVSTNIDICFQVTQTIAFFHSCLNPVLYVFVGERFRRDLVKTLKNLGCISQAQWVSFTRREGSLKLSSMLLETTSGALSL

[1] = antagonist effect, 100 nM, single replicates 1st and 2nd, 0.1 µM
[2] = read-out: % Inhibition of control agonist response
[3] = read-out: Agonist Response (% of Control), Mean, antagonist effect, 100 nM, mean of 2
[4] = read-out: Agonist Response (% of Control), antagonist effect, 100 nM, single replicates 1st and 2nd
[5] = mean of 2, read-out: % Of control specific binding, Mean
[6] = read-out: % Inhibition of control specific binding
[7] = single replicates 1 and 2, 0.1 µM
[8] = single replicates 1 and 2, read-out: % Of control specific binding

T5 sequence (P20309 whole entry): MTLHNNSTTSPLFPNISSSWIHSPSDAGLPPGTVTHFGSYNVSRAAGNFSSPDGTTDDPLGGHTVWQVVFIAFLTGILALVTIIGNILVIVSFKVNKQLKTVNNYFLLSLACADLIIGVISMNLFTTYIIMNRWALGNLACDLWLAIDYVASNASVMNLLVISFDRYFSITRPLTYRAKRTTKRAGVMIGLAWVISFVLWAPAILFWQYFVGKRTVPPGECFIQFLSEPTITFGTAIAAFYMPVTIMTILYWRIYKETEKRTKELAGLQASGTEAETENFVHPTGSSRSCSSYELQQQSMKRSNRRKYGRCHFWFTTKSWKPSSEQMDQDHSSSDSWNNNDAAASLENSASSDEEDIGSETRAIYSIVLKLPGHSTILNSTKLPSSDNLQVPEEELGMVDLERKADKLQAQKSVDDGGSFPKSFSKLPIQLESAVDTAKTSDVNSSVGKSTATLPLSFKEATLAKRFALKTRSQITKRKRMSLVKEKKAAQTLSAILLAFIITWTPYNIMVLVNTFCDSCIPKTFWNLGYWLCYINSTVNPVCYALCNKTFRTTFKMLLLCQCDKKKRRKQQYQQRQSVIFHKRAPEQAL

Cc1ccc(-c2nnc(SCC(=O)Nc3nccs3)[nH]2)cc1 [Compound 9]
Agonist Response (% of Control) (CCR7; [1]): 122.8% | inhibition at 0.1 µM (CCR7; [2]): -1.8% | activity at 0.1 µM (CCR7; [3]): 127% | activity at 0.1 µM (CCR7; [4]): 131% | remaining activity at 0.1 µM (ADR2B; [5]): 99.9% | inhibition at 0.1 µM (ADR2B; [6]): 0% | % Of control specific binding (ADR2B; [7]): 95.6% | remaining activity at 0.1 µM (ADR2B; [8]): 104% | remaining activity at 0.1 µM (CysLT2; [5]): 101% | inhibition at 0.1 µM (CysLT2; [6]): -1% | % Of control specific binding (CysLT2; [7]): 103.4% | remaining activity at 0.1 µM (CysLT2; [8]): 97.9% | Agonist Response (% of Control) (CXCR1; [1]): 105.5% | inhibition at 0.1 µM (CXCR1; [2]): -0.8% | activity at 0.1 µM (CXCR1; [3]): 96.3% | activity at 0.1 µM (CXCR1; [4]): 87.1% | remaining activity at 0.1 µM (M3; [5]): 106% | inhibition at 0.1 µM (M3; [6]): -6% | % Of control specific binding (M3; [7]): 110.4% | remaining activity at 0.1 µM (M3; [8]): 101% | remaining activity at 0.1 µM (M4; [5]): 95.4% | inhibition at 0.1 µM (M4; [6]): 5% | % Of control specific binding (M4; [7]): 95.1% | remaining activity at 0.1 µM (M4; [8]): 95.7% | Agonist Response (% of Control) (CCR9; [1]): 95.2% | inhibition at 0.1 µM (CCR9; [2]): 0.1% | activity at 0.1 µM (CCR9; [3]): 102% | activity at 0.1 µM (CCR9; [4]): 108%
